Assay results taken from patent US20180125774A1, “Method and Composition for Visible Light Dryable Nail Coatings” (priority 2016, published 2018).

What was measured:
Type in all cases: physicochemical
[1] = Solubility of visible light photo-initiator B in solvents; conditions: 20° C.
Text: The following table 5 lists the solubility of the visible light photo-initiator B of the first preferred embodiment of the visible light dryable nail coating according to this present invention.

[2] = Specification solubility test in acetone
Text: The following table 4 lists the specification of the visible light photo-initiator B of the first preferred embodiment of the visible light dryable nail coating according to this present invention.

[3] = Stability (thermal, light, oxidation in air) as described
Text: Any one of several photo-initiators is used in the present invention, wherein the photo-initiators can be either component (A): visible light photo-initiator A or component (B): visible light photo-initiator B. Visible light photo-initiator A is, but not limited to, Bis (η5-2,4-cylcopentadian-1-yl)-bis (2,6-di-fluoro-3-(1H-pyrrol-1-yl) phenyl) titanium. […] More specifically, visible light photo-initiator A is particularly suitable for the curing of photopolymers for imaging or information storage applications where extremely high photosensitivity is required.
It is worth to mention that visible light photo-initiator A is sensitive to visible light and any exposure to sunlight must be avoided. And, the visible light photo-initiator A must be stored in low temperature, which is below 25° C., and dry environment. […] Therefore, opened drums are required to close after use to protect the product against light.
Accordingly, visible light photo-initiator B is, but not limited to, 4,4′-Bis (diethylamino) benzophenone. Visible light photo-initiator B is both an aromatic ketone and a tertiary amine, and acts both as a photosensitizer and an amine synergist.

[4] = Solubility of visible light photo-initiator A in solvents; conditions: 25° C.
Text: The following table 2 lists the solubility of the visible light photo-initiator A of the first preferred embodiment of the visible light dryable nail coating according to this present invention.

Solubility ([1]; Acetone) [% w/w] | Solubility ([1]; Butyl Acetate) [% w/w] | Solubility ([1]; Ethyl acetate) [% w/w] | Solubility ([1]; Methanol) [% w/w] | Solubility ([1]; Toluene) [% w/w] | Solubility ([1]; Water) [% w/w] | Solubility (3 g/10 mL Acetone) [2] | Solubility ([4]; Acetone) [g in 100 ml solvent] | Solubility ([4]; Butyl Acetate) [g in 100 ml solvent] | Solubility ([4]; HDDA) [g in 100 ml solvent] | Solubility ([4]; MEK) [g in 100 ml solvent] | Solubility ([4]; Toluene) [g in 100 ml solvent] | Solubility ([4]; Water) [g in 100 ml solvent] | Thermal stability [3] | Compound | Resistance to oxidation ([3]; exposure in air, versus most commercially available EMK) | Light sensitivity ([3]; dissolved in a solvent or a formulation, daylight and standard fluorescence bulbs)
30 | 30 | 24 | 7.0 | 25 | <0.01 | Clear solution | – | – | – | – | – | – | – | CCN(CC)c1ccc(C(=O)c2ccc(N(CC)CC)cc2)cc1 [visible light photo-initiator B, 4,4′-Bis (diethylamino) benzophenone] | more resistant to oxidation by exposure in air than most commercially available EMK | –
– | – | – | – | – | – | – | 30 | 2 | 10 | 30 | 10 | <0.5 | good thermal stability | Fc1ccc(-n2cccc2)c(F)[c]1[Ti+2][c]1c(F)ccc(-n2cccc2)c1F.c1cc[cH-]c1.c1cc[cH-]c1 [visible light photo-initiator A, Bis (η5-2,4-cylcopentadian-1-yl)-bis (2,6-di-fluoro-3-(1H-pyrrol-1-yl)phenyl) titanium] | – | extremely sensitive to daylight and light from standard fluorescence bulbs
